How the values were obtained:
[1] = Metabolic stability test in liver microsomes (rat); type: in vitro ADME; details: percentage of remaining compound after incubation for 30 minutes vs 0 minute; 1 μM compound; 0.5 mg/mL liver microsomes; 37° C.
Procedure: (§1) Male CD1 mouse liver microsomes was supplied by Research Institute for Liver Diseases (Shanghai) Co., Ltd. Male SD rat liver microsomes was supplied by BioreclamationIVT in US.
(§2) Phenacetin, glucose-6-phosphate (G-6-P), glucose-6-phosphate dehydrogenase (G-6-PD), and nicotinamide adenine dinucleotide phosphate (NADP) were supplied by Sigma-Aldrich (Missouri, USA).
(§3) 10 mM stock solution of test compound: Certain amount of test compound was weighed and dissolved in certain volume of dimethylsulfoxide (DMSO) to get the stock solution of test compound at 10 mM.
(§4) Reaction termination solution: Certain amount of phenacetin as internal standard was weighed and dissolved in acetonitrile to get the reaction termination solution at 1000 ng/mL, and stored at room temperature for use.
(§5) The stock solution of test compound was diluted to the designated concentration with organic solution (usually the mixtures of acetonitrile, methanol and water with different portions depending on the compound solution) to make the final concentration to be 1 μM and the contents of organic solvents no more than 1% (For DMSO, the controlled margin was 0.1%) in the final incubation system. 100 mM NADP, 500 mM G-6-P and 100 U/mL G-6-PDH were mixed and diluted with ultrapure water to provide the NADPH regenerating system containing 1 mM NADP, 5 mM G-6-P and 1 U/mL G-6-PD, which was pre-incubated at 37° C. water-bath for 10 min and then cooled on ice until being added into the reaction system. 20 mg/mL liver microsomes was mixed with 200 mM PBS and diluted with ultrapure water to make the concentrations of liver microsomes and PBS to be 0.5 mg/mL and 50 mM in the final incubation system, respectively. After the diluted liver microsomes was mixed with the NADPH regenerating solution, certain volumes of 100 mM EDTA and 300 mM MgCl2 (concentration of EDTA and MgCl2 in the final incubation system is 1 mM and 3 mM, respectively) were added, and the incubation system was put into 37° C. water bath. The incubation was commenced by adding the stock solution of test compound and maintained for 30 min. The incubation was terminated by adding the reaction termination solution. The 0 min sample was prepared by adding the reaction termination solution to the incubation system immediately prior to putting the system into the water bath with the addition of the stock solution of test compound. The terminated incubation mixtures were vortexed and centrifuged at 4400 rpm for 10 min, and the supernatant was collected for LC-MS/MS analysis.
(§6) The concentration of test compound was determined using LC-MS/MS method. Using the peak area ratio of the compound and the internal standard as an index, the percentage of remaining compound after incubation for 30 minutes as compared with the 0 minute sample was calculated, and the metabolic stability of the compound was evaluated.

[2] = Metabolic stability test in liver microsomes (mouse); type: in vitro ADME; details: percentage of remaining compound after incubation for 30 minutes vs 0 minute; 1 μM compound; 0.5 mg/mL liver microsomes; 37° C.
Procedure: as §1, §2, §3, §4, §5, §6

IDH1-R132H = target: T1, IDH1-R132H (Homo sapiens, UniProt O75874, R132H); assay: Fluorescent determination of IDH1-R132H cell activity (2-HG in U87MGR132H cells); type: cell-based; details: 2-HG inhibition in U87MGR132H cells transfected with IDH1-R132H mutant plasmid
T1 construct: expressed in transfected cells; host or cells: U87MG cells (U87MGR132H)

IDH2-R140Q = target: T2, IDH2-R140Q (Homo sapiens, UniProt P48735, R140Q); assay: Fluorescent determination of IDH2-R140Q cell activity (2-HG in U87MGR140Q cells); type: cell-based; details: 72 hours incubation, read-out: IC50 (2-HG inhibition)
T2 construct: expressed in transfected cells
T2 sequence (P48735 40-452 R140Q): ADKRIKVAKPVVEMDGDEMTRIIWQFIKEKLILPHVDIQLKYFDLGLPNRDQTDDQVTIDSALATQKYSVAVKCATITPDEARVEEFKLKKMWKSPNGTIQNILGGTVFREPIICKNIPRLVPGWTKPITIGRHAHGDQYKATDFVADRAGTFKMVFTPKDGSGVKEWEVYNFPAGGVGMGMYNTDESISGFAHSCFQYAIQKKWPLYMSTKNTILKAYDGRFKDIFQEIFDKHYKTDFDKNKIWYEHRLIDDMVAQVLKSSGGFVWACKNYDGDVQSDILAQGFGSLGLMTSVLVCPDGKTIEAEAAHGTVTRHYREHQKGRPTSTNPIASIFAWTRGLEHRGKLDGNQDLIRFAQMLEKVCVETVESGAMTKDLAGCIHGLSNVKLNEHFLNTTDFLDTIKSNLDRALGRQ

T1 sequence (O75874 whole entry R132H): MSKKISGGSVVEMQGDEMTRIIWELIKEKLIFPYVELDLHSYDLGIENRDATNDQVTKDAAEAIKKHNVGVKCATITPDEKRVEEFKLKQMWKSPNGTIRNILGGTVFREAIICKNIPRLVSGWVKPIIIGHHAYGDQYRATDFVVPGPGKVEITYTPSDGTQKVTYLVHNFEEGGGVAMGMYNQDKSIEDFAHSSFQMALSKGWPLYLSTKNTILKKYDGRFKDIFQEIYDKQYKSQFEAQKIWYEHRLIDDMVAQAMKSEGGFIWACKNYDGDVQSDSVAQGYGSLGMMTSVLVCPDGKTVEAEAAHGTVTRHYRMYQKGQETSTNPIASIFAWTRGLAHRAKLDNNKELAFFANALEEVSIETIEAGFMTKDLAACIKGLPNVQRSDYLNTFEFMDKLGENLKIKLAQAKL

| Rat liver microsome stability [1] [%] | Mouse liver microsome stability [2] [%] | IC50 (IDH1-R132H) [nM] | IC50 (IDH2-R140Q) [nM] | Compound |
| --- | --- | --- | --- | --- |
| 82.4 | 80.9 | – | – | [2H]C1([2H])CCC(c2nc(NC3CC(F)(F)C3)nc(N[C@@H](C)C(F)(F)F)n2)=C(F)C1([2H])O (mixture of isomers) [Compound 90] |
| – | – | 7440 | 34 | CC(C)Nc1nc(Nc2ccnc(F)c2)nc(C2=C(F)C(O)CCC2)n1 (stereo not drawn) [Compound 74] |
| – | – | > 10000 | > 10000 | C[C@@H](Nc1nc(N)nc(C2=C(F)C(O)C(F)(F)CC2)n1)C(F)(F)F (stereo partly drawn) [Compound 280, 3-(4-Amino-6-(((R)-1,1,1-trifluoropropan-2-yl)amino)-1,3,5-triazin-2-yl)-2,6,6-trifluoro-cyclohex-2-en-1-ol] |
| – | – | > 10000 | 1500 | CC(C)(O)CNc1nc(Nc2ccc3sncc3c2)nc(C2=C(F)C(O)CCC2)n1 (stereo not drawn) [Compound 199] |
| – | – | 2850 | 109 | C[C@H](Nc1nc(NCC(F)(F)F)nc(C2=C(F)C(O)C(F)(F)CC2)n1)C(F)(F)F (mixture of isomers) [Compound 270] |
| – | – | > 10000 | 637 | C[C@H](Nc1nc(NOC(C)(C)C)nc(C2=C(F)C(O)C(F)(F)CC2)n1)C(F)(F)F (mixture of isomers) [Compound 293] |
| – | – | 2230 | 94 | CC(C)Nc1nc(NC2CC(F)(F)C2)nc(C2=C(F)C(O)C(F)(F)CC2)n1 (stereo not drawn) [Compound 261] |
| – | – | 1630 | 297 | C[C@@H](Nc1nc(NC(CF)CF)nc(C2=C(F)C(O)CCC2)n1)C(F)(F)F (stereo partly drawn) [Compound 41] |
| – | – | > 10000 | 170 | CC(C)(C)ONc1nc(Nc2cc(Cl)ccn2)nc(C2=C(F)C(O)CCC2)n1 (stereo not drawn) [Compound 61] |
| – | – | 1030 | 156 | C[C@H](Nc1nc(N[C@H](C)C(F)(F)F)nc(C2=C(F)C(O)C(F)(F)CC2)n1)C(F)(F)F (stereo partly drawn) [Compound 277] |
| – | – | 2010 | 300 | C[C@@H](Nc1nc(N[C@H](C)C(F)(F)F)nc(C2=C(F)C(O)CCC2)n1)c1ccccc1 (mixture of isomers) [Compound 152, 2-Fluoro-3-(4-(((R)-1-phenylethyl)amino)-6-(((R)-1,1,1-trifluoropropan-2-yl)amino)-1,3,5-triazin-2-yl)cyclohex-2-en-1-ol] |
| – | – | > 10000 | 487 | OC1C(F)=C(c2nc(Nc3ccnc(C(F)(F)F)c3)nc(N3CC(F)(F)C3)n2)CCC1(F)F (single isomer, unassigned) [Compound 221] |
| – | – | > 10000 | 152 | CC(C)Nc1nc(Nc2ccc3sncc3c2)nc(C2=C(F)C(O)CCC2)n1 (stereo not drawn) [Compound 65] |
| – | – | 4340 | 93 | CCCNc1nc(N[C@H](C)C(F)(F)F)nc(C2=C(F)C(O)C(F)(F)CC2)n1 (mixture of isomers) [Compound 210] |
| – | – | > 10000 | 209 | Cc1cc(Nc2nc(NOC(C)(C)C)nc(C3=C(F)C(O)CCC3)n2)ccn1 (stereo not drawn) [Compound 204] |
| – | – | 2240 | 229 | [2H]C([2H])([2H])C([2H])(Nc1nc(N[C@H](C)C(F)(F)F)nc(C2=C(F)C(O)CCC2)n1)C([2H])([2H])[2H] (stereo partly drawn) [Compound 52] |
| – | – | 1080 | 53 | CC(C)Nc1nc(N[C@H](C)C(F)(F)F)nc(C2=C(F)C(O)C(F)(F)CC2)n1 (stereo partly drawn) [Compound 244] |
| – | – | 1220 | 216 | C[C@H](Nc1nc(N[C@H](C)C(F)(F)F)nc(C2=C(F)C(O)CCC2)n1)C1CC1 (mixture of isomers) [Compound 8] |

| Rat liver microsome stability [1] [%] | Mouse liver microsome stability [2] [%] | IC50 (IDH1-R132H) [nM] | IC50 (IDH2-R140Q) [nM] | Compound |
| --- | --- | --- | --- | --- |
| – | – | 1760 | 78 | C[C@@H](Nc1nc(NCC2CC2)nc(C2=C(F)C(O)C(F)(F)CC2)n1)C(F)(F)F (mixture of isomers) [Compound 209] |
| – | – | 2700 | 675 | CC(C)Nc1nc(N[C@H](C)C(F)(F)F)nc(C2=C(F)C(O)C(F)CC2)n1 (single isomer, unassigned) [Compound 96] |
| – | – | > 10000 | 383 | CC(C)Nc1nc(Nc2ccc3nscc3c2)nc(C2=C(F)C(O)CCC2)n1 (racemic) [Compound 229] |
| – | – | > 10000 | 69 | CCCONc1nc(Nc2ccnc(C(F)(F)F)c2)nc(C2=C(F)C(O)C(F)(F)CC2)n1 (stereo not drawn) [Compound 217] |
| – | – | 2470 | 100 | CC(C)CNc1nc(N[C@H](C)C(F)(F)F)nc(C2=CC(O)CCC2)n1 (mixture of isomers) [Compound 134] |
| – | – | 705 | 417 | C[C@@H](Nc1nc(NC2CC(F)(F)C2)nc(C2=C(F)C(O)C(F)CC2)n1)C(F)(F)F (single isomer, unassigned) [Compound 228] |
| – | – | 4650 | 137 | C[C@@H](Nc1nc(NC2CC2)nc(C2=C(F)C(O)CCC2)n1)C(F)(F)F (stereo partly drawn) [Compound 224] |
| – | – | 3170 | 327 | CC(C)[C@H](C)Nc1nc(N[C@H](C)C(F)(F)F)nc(C2=C(F)C(O)CCC2)n1 (mixture of isomers) [Compound 167] |
| – | – | 1140 | 423 | C[C@@H](Nc1nc(N[C@H](C)C(F)(F)F)nc(C2=C(F)C(=O)C(F)(F)CC2)n1)C(F)(F)F [Compound 296] |
| – | – | 939 | 349 | C[C@@H](Nc1nc(N[C@H](C)C(F)(F)F)nc(C2=C(F)C(O)C(F)CC2)n1)C(F)(F)F (stereo partly drawn) [Compound 268, 3-(4,6-Bis(((R)-1,1,1-trifluoropropan-2-yl)amino)-1,3,5-triazin-2-yl)-2,6-difluorocyclohex-2-en-1-D-1-ol] |
| – | – | 3570 | 1330 | C[C@@H](Nc1nc(N[C@H](C)C(F)(F)F)nc(C2=C(F)C(O)C(F)CC2)n1)C(F)(F)F (stereo partly drawn) [Compound 267, 3-(4,6-Bis(((R)-1,1,1-trifluoropropan-2-yl)amino)-1,3,5-triazin-2-yl)-2,6-difluorocyclohex-2-en-1-D-1-ol] |
| – | – | 5640 | 59 | CC(C)(C)ONc1nc(Nc2ccnc(Cl)c2)nc(C2=C(F)C(O)CCC2)n1 (stereo not drawn) [Compound 47] |
| – | – | 1520 | 278 | C[C@@H](Nc1nc(N[C@H](C)C(F)(F)F)nc(C2=C(F)C(O)CCC2)n1)C1CC1 (mixture of isomers) [Compound 158] |
| – | – | 1300 | 106 | C[C@@H](Nc1nc(NCC(F)(F)F)nc(C2=C(F)C(O)CCC2)n1)C(F)(F)F (stereo partly drawn) [Compound 79] |
| – | – | 455 | 690 | C[C@@H](Nc1nc(N[C@H](C)C(F)(F)F)nc(C2=CC(O)C(F)(F)CC2)n1)C(F)(F)F (mixture of isomers) [Compound 281] |
| – | – | > 10000 | 94 | C[C@H](Nc1nc(NC2CC2)nc(C2=C(F)C(O)C(F)(F)CC2)n1)C(F)(F)F (mixture of isomers) [Compound 260] |
| – | – | 282 | 203 | C[C@@H](Nc1nc(N[C@H](C)C(F)(F)F)nc(C2=C(F)C(O)CCC2)n1)C(F)(F)F (stereo partly drawn) [Compound 83, 3-(4,6-bis(((R)-1,1,1-trifluoropropan-2-yl)amino)-1,3,5-triazin-2-yl)-2-fluorocyclohex-2-en-1,6,6-D3-1-ol] |
| – | – | 296 | 137 | C[C@@H](Nc1nc(N[C@H](C)C(F)(F)F)nc(C2=C(F)C(O)C(F)CC2)n1)C(F)(F)F (stereo partly drawn) [Compound 269, 3-(4,6-Bis(((R)-1,1,1-trifluoropropan-2-yl)amino)-1,3,5-triazin-2-yl)-2,6-difluorocyclohex-2-en-1-D-1-ol] |

Reference: patent US12234211B2, “Cycloolefin substituted heteroaromatic compounds and their use” (HUTCHISON MEDIPHARMA LIMITED, priority 2017, dated 2025)
